# Test results published in US10792232B2, “Methods to deliver antifibrinolytic drugs for anti-aging results” (MURDOCK TECHNOLOGIES, LLC, priority 2016, dated 2020).
# Like-named read-outs stand apart in the source and are kept apart here.
# Columns and labels:
# [1] = cited from earlier work
# surface of the face = conditions: 1-2 ml of 10% solution applied daily to the face, over 14-21 days
# Excerpt: The present invention is based on the realization that the aging process and its physical effects on the skin and body involve the activation of a fibrinolytic process. […] The dosage of antifibrinolytic agent(s) should be less than 6 grams per day. […] A particularly advantageous manner of administration for topical delivery is by single use pre-impregnated towelettes applied to the area of the skin to be treated.
# dark patches of skin = conditions: injected directly into affected area, sometimes with laser therapy, melasma patients; cited from earlier work
# [2] = test system: mice that are bred to display skin dryness; conditions: oral, 750 mg/kg/day over 20 days; cited from earlier work
smiles,measurement,setting,value
NC[C@H]1CC[C@H](C(=O)O)CC1 [tranexamic acid],dose shown to induce seizures,[1]; equivalent of 80 mg/kg/day,approximately 6 grams per day
same,dose shown to induce seizures,[1]; in vivo,> 80 mg/kg/day
same,lines and wrinkles,surface of the face,lines and wrinkles are fewer and less pronounced
same,overall skin tone,surface of the face,improved
same,effect on dark patches of skin,dark patches of skin,lighten dark patches of skin
same,effect on wrinkles caused by skin dryness,[2],amelioration effect on wrinkles specifically caused by skin dryness
